{
  "source": "patent US11780893B2",
  "about": "“Kv1.3 blockers” (Zealand Pharma A/S, priority 2019, dated 2023)",
  "key": {"[1]": {"biological_target": "T1, human Kv1.3 voltage-gated K+ channel (Homo sapiens, UniProt P22001)", "T1 construct": "host or cells: CHO-DUKX", "T1 sequence (P22001 whole entry)": "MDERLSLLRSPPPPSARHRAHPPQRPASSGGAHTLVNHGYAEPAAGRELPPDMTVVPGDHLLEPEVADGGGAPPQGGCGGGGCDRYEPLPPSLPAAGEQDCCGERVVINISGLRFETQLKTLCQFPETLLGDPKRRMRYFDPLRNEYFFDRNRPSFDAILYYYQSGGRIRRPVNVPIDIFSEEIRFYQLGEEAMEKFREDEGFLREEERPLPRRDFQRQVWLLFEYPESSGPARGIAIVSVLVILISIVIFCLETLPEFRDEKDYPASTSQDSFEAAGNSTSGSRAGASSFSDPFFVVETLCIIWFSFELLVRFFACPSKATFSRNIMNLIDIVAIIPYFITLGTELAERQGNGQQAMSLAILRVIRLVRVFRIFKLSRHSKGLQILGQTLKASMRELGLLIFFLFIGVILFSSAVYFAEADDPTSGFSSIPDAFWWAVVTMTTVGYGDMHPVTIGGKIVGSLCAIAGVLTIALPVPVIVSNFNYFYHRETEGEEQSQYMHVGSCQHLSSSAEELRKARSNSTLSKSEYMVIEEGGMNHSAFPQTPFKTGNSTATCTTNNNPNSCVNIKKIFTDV", "test": "cell-based", "conditions": "inhibition of thallium flux, CHO-DUKX cells with human Kv1.3; read-out: IC50"}, "[2]": {"biological_target": "T2, Kv1.3 (Homo sapiens, UniProt P22001)", "T2 construct": "expressed in transfected cells; host or cells: Chinese Hamster Ovary (CHO)", "T2 sequence (P22001 whole entry)": "as above", "test": "cell-based", "conditions": "CHO cells, whole-cell patch clamp; read-out: Potency IC50 (nM) Kv1.3"}, "[3]": {"biological_target": "Rat whole blood (Rattus norvegicus, UniProt P15384)", "sequence (P15384 whole entry)": "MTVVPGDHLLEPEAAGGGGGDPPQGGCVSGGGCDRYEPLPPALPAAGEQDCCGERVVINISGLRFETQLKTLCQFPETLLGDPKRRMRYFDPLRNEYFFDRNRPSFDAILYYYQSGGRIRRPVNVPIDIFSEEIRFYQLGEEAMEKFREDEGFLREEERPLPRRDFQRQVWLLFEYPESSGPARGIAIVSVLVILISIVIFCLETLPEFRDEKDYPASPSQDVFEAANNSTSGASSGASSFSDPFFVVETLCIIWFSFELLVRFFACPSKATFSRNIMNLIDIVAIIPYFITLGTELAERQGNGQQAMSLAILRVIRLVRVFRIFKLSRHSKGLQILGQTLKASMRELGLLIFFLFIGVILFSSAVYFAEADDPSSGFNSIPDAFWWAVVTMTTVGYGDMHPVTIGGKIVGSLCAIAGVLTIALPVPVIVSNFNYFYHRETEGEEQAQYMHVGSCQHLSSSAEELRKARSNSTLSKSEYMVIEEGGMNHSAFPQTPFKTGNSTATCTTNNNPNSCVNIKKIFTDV"}, "[4]": {"biological_target": "T3, Kv1.6 (Homo sapiens, UniProt P17658)", "T3 construct": "expressed in transfected cells; host or cells: Chinese Hamster Ovary (CHO)", "T3 sequence (P17658 whole entry)": "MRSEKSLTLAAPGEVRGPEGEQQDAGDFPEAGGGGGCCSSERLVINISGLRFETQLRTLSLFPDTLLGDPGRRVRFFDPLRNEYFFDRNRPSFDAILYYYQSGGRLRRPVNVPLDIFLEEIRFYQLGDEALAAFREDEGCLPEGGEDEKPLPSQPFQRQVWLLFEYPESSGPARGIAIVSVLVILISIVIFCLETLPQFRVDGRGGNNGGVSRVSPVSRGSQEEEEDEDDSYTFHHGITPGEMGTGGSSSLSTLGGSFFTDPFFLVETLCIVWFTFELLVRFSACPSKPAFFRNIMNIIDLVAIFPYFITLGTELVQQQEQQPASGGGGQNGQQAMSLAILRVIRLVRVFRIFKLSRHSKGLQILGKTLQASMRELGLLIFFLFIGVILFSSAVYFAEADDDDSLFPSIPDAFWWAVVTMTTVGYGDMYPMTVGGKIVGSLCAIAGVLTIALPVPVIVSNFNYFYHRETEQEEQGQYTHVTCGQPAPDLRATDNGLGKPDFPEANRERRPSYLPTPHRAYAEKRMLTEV", "test": "cell-based", "conditions": "CHO cells, whole-cell patch clamp; read-out: Potency IC50 (nM) Kv1.6"}, "[5]": {"biological_target": "T4, Kv1.2 (Homo sapiens, UniProt P16389)", "T4 construct": "expressed in transfected cells; host or cells: Chinese Hamster Ovary (CHO)", "T4 sequence (P16389 whole entry)": "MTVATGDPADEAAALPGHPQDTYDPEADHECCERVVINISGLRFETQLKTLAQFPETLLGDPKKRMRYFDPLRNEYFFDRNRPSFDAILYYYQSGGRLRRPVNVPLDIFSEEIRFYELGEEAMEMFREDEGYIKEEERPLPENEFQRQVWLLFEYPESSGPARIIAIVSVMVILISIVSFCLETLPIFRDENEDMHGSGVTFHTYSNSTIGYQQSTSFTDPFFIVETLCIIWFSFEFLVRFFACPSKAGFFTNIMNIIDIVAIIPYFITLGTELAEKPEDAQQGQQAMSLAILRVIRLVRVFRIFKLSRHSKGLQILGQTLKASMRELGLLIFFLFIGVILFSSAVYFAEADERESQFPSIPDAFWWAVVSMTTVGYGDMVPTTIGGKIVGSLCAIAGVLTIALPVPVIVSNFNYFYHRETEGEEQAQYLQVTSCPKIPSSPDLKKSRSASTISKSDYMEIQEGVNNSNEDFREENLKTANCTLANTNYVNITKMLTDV", "test": "cell-based", "conditions": "CHO cells, whole-cell patch clamp; read-out: Potency IC50 (nM) Kv1.2"}},
  "note": "Bridge positions count the residues as written; N and C are the ends. Square brackets hold non-standard residues; d marks the D form. Peptide text beside a SMILES is read from it. Nle = CCCC[C@H](N)C(=O)O",
  "data": [
    {"compound": "CC[C@H](C)[C@@H]1NC(=O)[C@H](C)NC(=O)[C@H](CCCCN)NC(=O)[C@H](CC(C)C)NC(=O)[C@@H]2CSSC[C@@H](C(=O)N[C@@H](Cc3ccc(O)cc3)C(=O)N3CCC[C@H]3C(=O)N[C@@H](CCCNC(=N)N)C(N)=O)NC(=O)[C@H](CCCCN)NC(=O)[C@@H]3CSSC[C@H](NC(=O)[C@H](CCC(=O)O)NC(=O)[C@H](C(C)C)NC(=O)[C@H](CO)NC(=O)[C@H](C)NC(=O)[C@H](CO)NC(=O)[C@@H](NC(=O)[C@H](CCCNC(=N)N)NC(=O)[C@H](CCSC)NC(=O)[C@H](CC(=O)O)NC(=O)[C@H](CCSC)NC(=O)[C@@H](N)CC(N)=O)CSSC[C@H](NC(=O)[C@H](CCCCN)NC(=O)CNC(=O)[C@H](Cc4ccccc4)NC(=O)[C@H]([C@@H](C)CC)NC(=O)[C@H](CO)NC(=O)CNC1=O)C(=O)N[C@@H](CCSC)C(=O)N[C@@H](CC(N)=O)C(=O)N[C@@H](CCCCN)C(=O)N[C@@H](CCCCN)C(=O)N3)C(=O)N[C@@H](CCCCN)C(=O)N[C@@H](CC(C)C)C(=O)N[C@@H](CCCCN)C(=O)N2", "note": "[Compound 32] (H-NMDMRCSASVECKLKCLKAIGSIFGKCMNKKCKCYPR-NH2; disulfide 6-27, 12-32, 16-34)", "values": [
      {"measurement": "IC50", "setting": "[1]", "result": 0.12, "unit": "nM"},
      {"measurement": "IC50", "setting": "[2]", "result": 0.38, "unit": "nM"},
      {"measurement": "IC50", "setting": "[3]", "result": "≤ 1", "unit": "nM"}
    ]},
    {"compound": "CCCC[C@@H]1NC(=O)[C@@H]2CSSC[C@H](NC(=O)[C@H](CCCNC(=N)N)NC(=O)[C@H](CCCC)NC(=O)[C@H](CC(=O)O)NC(=O)[C@H](CCCC)NC(=O)[C@@H](N)Cc3c[nH]cn3)C(=O)N[C@@H](CO)C(=O)N[C@@H](C)C(=O)N[C@@H](CO)C(=O)N[C@@H](C(C)C)C(=O)N[C@@H](CCC(=O)O)C(=O)N[C@H]3CSSC[C@H](NC(=O)[C@H](CCCCN)NC(=O)[C@H](CCCCN)NC(=O)[C@H](CC(N)=O)NC1=O)C(=O)N[C@@H](CCCCN)C(=O)N[C@H](C(=O)N[C@@H](Cc1ccc(O)cc1)C(=O)N1CCC[C@H]1C(=O)N[C@@H](CCCNC(=N)N)C(N)=O)CSSC[C@H](NC(=O)[C@H](CCCCN)NC(=O)[C@H](CCC(N)=O)NC(=O)[C@H](CCCCN)NC3=O)C(=O)N[C@@H](CC(C)C)C(=O)N[C@@H](CCCCN)C(=O)N[C@@H](C)C(=O)N[C@@H]([C@@H](C)CC)C(=O)NCC(=O)N[C@@H](CO)C(=O)N[C@@H]([C@@H](C)CC)C(=O)N[C@@H](Cc1ccccc1)C(=O)NCC(=O)N[C@@H](CCCCN)C(=O)N2", "note": "[Compound 64] (H-H[Nle]D[Nle]RCSASVECKQKCLKAIGSIFGKC[Nle]NKKCKCYPR-NH2; disulfide 6-27, 12-32, 16-34)", "values": [
      {"measurement": "IC50", "setting": "[1]", "result": 0.12, "unit": "nM"},
      {"measurement": "IC50", "setting": "[2]", "result": 0.25, "unit": "nM"}
    ]},
    {"compound": "CCCC[C@@H]1NC(=O)[C@@H]2CSSC[C@H](NC(=O)[C@H](CCCNC(=N)N)NC(=O)[C@H](CCCC)NC(=O)[C@H](CC(=O)O)NC(=O)[C@H](CCCC)NC(=O)[C@@H](N)Cc3ccc(O)cc3)C(=O)N[C@@H](CO)C(=O)N[C@@H](C)C(=O)N[C@@H](CO)C(=O)N[C@@H](C(C)C)C(=O)N[C@@H](CCC(=O)O)C(=O)N[C@H]3CSSC[C@H](NC(=O)[C@H](CCCCN)NC(=O)[C@H](CCCCN)NC(=O)[C@H](CC(N)=O)NC1=O)C(=O)N[C@@H](CCCCN)C(=O)N[C@H](C(=O)N[C@@H](Cc1ccc(O)cc1)C(=O)N1CCC[C@H]1C(=O)N[C@@H](CCCNC(=N)N)C(N)=O)CSSC[C@H](NC(=O)[C@H](CCCCN)NC(=O)[C@H](CCC(N)=O)NC(=O)[C@H](CCCCN)NC3=O)C(=O)N[C@@H](CC(C)C)C(=O)N[C@@H](CCCCN)C(=O)N[C@@H](C)C(=O)N[C@@H]([C@@H](C)CC)C(=O)NCC(=O)N[C@@H](CO)C(=O)N[C@@H]([C@@H](C)CC)C(=O)N[C@@H](Cc1ccccc1)C(=O)NCC(=O)N[C@@H](CCCCN)C(=O)N2", "note": "[Compound 65] (H-Y[Nle]D[Nle]RCSASVECKQKCLKAIGSIFGKC[Nle]NKKCKCYPR-NH2; disulfide 6-27, 12-32, 16-34)", "values": [
      {"measurement": "IC50", "setting": "[1]", "result": 0.12, "unit": "nM"},
      {"measurement": "IC50", "setting": "[2]", "result": 0.14, "unit": "nM"}
    ]},
    {"compound": "CCCC[C@@H]1NC(=O)[C@@H]2CSSC[C@H](NC(=O)[C@H](CCCNC(=N)N)NC(=O)[C@H](CCCC)NC(=O)[C@H](CC(=O)O)NC(=O)[C@H](CCCC)NC(=O)[C@@H](N)CO)C(=O)N[C@@H](CO)C(=O)N[C@@H](C)C(=O)N[C@@H](CO)C(=O)N[C@@H](C(C)C)C(=O)N[C@@H](CCC(=O)O)C(=O)N[C@H]3CSSC[C@H](NC(=O)[C@H](CCCCN)NC(=O)[C@H](CCCCN)NC(=O)[C@H](CC(N)=O)NC1=O)C(=O)N[C@@H](CCCCN)C(=O)N[C@H](C(=O)N[C@@H](Cc1ccc(O)cc1)C(=O)N1CCC[C@H]1C(=O)N[C@@H](CCCNC(=N)N)C(N)=O)CSSC[C@H](NC(=O)[C@H](CCCCN)NC(=O)[C@H](CCC(N)=O)NC(=O)[C@H](CCCCN)NC3=O)C(=O)N[C@@H](CC(C)C)C(=O)N[C@@H](CCCCN)C(=O)N[C@@H](C)C(=O)N[C@@H]([C@@H](C)CC)C(=O)NCC(=O)N[C@@H](CO)C(=O)N[C@@H]([C@@H](C)CC)C(=O)N[C@@H](Cc1ccccc1)C(=O)NCC(=O)N[C@@H](CCCCN)C(=O)N2", "note": "[Compound 66] (H-S[Nle]D[Nle]RCSASVECKQKCLKAIGSIFGKC[Nle]NKKCKCYPR-NH2; disulfide 6-27, 12-32, 16-34)", "values": [
      {"measurement": "IC50", "setting": "[1]", "result": 0.12, "unit": "nM"},
      {"measurement": "IC50", "setting": "[2]", "result": 0.18, "unit": "nM"},
      {"measurement": "IC50", "setting": "[3]", "result": "≤ 1", "unit": "nM"}
    ]},
    {"compound": "CCCC[C@@H]1NC(=O)[C@@H]2CSSC[C@H](NC(=O)[C@H](CCCNC(=N)N)NC(=O)[C@H](CCCC)NC(=O)[C@H](CC(=O)O)NC(=O)[C@H](CCCC)NC(=O)[C@@H](N)C(C)C)C(=O)N[C@@H](CO)C(=O)N[C@@H](C)C(=O)N[C@@H](CO)C(=O)N[C@@H](C(C)C)C(=O)N[C@@H](CCC(=O)O)C(=O)N[C@H]3CSSC[C@H](NC(=O)[C@H](CCCCN)NC(=O)[C@H](CCCCN)NC(=O)[C@H](CC(N)=O)NC1=O)C(=O)N[C@@H](CCCCN)C(=O)N[C@H](C(=O)N[C@@H](Cc1ccc(O)cc1)C(=O)N1CCC[C@H]1C(=O)N[C@@H](CCCNC(=N)N)C(N)=O)CSSC[C@H](NC(=O)[C@H](CCCCN)NC(=O)[C@H](CCC(N)=O)NC(=O)[C@H](CCCCN)NC3=O)C(=O)N[C@@H](CC(C)C)C(=O)N[C@@H](CCCCN)C(=O)N[C@@H](C)C(=O)N[C@@H]([C@@H](C)CC)C(=O)NCC(=O)N[C@@H](CO)C(=O)N[C@@H]([C@@H](C)CC)C(=O)N[C@@H](Cc1ccccc1)C(=O)NCC(=O)N[C@@H](CCCCN)C(=O)N2", "note": "[Compound 67] (H-V[Nle]D[Nle]RCSASVECKQKCLKAIGSIFGKC[Nle]NKKCKCYPR-NH2; disulfide 6-27, 12-32, 16-34)", "values": [
      {"measurement": "IC50", "setting": "[1]", "result": 0.12, "unit": "nM"},
      {"measurement": "IC50", "setting": "[2]", "result": 0.32, "unit": "nM"},
      {"measurement": "IC50", "setting": "[3]", "result": "≤ 1", "unit": "nM"}
    ]},
    {"compound": "CCCC[C@H](NC(=O)[C@H](CC(=O)O)NC(=O)[C@H](CCCC)NC(=O)[C@@H](N)CO)C(=O)N[C@@H](CCCNC(=N)N)C(=O)N[C@H]1CSSC[C@@H]2NC(=O)[C@H](CCCCN)NC(=O)CNC(=O)[C@H](Cc3ccccc3)NC(=O)[C@H]([C@@H](C)CC)NC(=O)[C@H](CO)NC(=O)CNC(=O)[C@H]([C@@H](C)CC)NC(=O)[C@H](C)NC(=O)[C@H](C)NC(=O)[C@H](CC(C)C)NC(=O)[C@@H]3CSSC[C@@H](C(=O)N[C@@H](Cc4ccc(O)cc4)C(=O)N4CCC[C@H]4C(=O)N[C@@H](CCCNC(=N)N)C(N)=O)NC(=O)[C@H](CCCCN)NC(=O)[C@H](CSSC[C@H](NC(=O)[C@H](CCC(=O)O)NC(=O)[C@H](C(C)C)NC(=O)[C@H](CO)NC(=O)[C@H](C)NC(=O)[C@H](CO)NC1=O)C(=O)N[C@@H](C)C(=O)N[C@@H](CCC(N)=O)C(=O)N[C@@H](CCCCN)C(=O)N3)NC(=O)[C@H](CCCCN)NC(=O)[C@H](CCCCN)NC(=O)[C@H](CC(N)=O)NC(=O)[C@H](CCSC)NC2=O", "note": "[Compound 80] (H-S[Nle]D[Nle]RCSASVECAQKCLAAIGSIFGKCMNKKCKCYPR-NH2; disulfide 6-27, 12-32, 16-34)", "values": [
      {"measurement": "IC50", "setting": "[1]", "result": 0.15, "unit": "nM"},
      {"measurement": "IC50", "setting": "[2]", "result": 0.16, "unit": "nM"}
    ]},
    {"compound": "CC[C@H](C)[C@@H]1NC(=O)[C@@H](NC(=O)[C@H](CO)NC(=O)[C@@H](N)CCCNC(=N)N)CSSC[C@@H](C(=O)O)NC(=O)[C@H]([C@@H](C)O)NC(=O)CNC(=O)[C@@H]2CSSC[C@@H]3NC(=O)[C@H](CCC(N)=O)NC(=O)[C@H](Cc4ccccc4)NC(=O)[C@H](C)NC(=O)[C@H]([C@@H](C)O)NC(=O)[C@H](CSSC[C@H](NC(=O)[C@H](Cc4ccccc4)NC(=O)[C@H](CO)NC(=O)[C@H](CC(C)C)NC(=O)[C@H](CCCNC(=N)N)NC(=O)[C@H](Cc4ccc(O)cc4)NC(=O)[C@H](CCCCN)NC(=O)[C@H](CCSC)NC(=O)[C@H](CO)NC(=O)[C@H](Cc4cnc[nH]4)NC(=O)[C@H](CCCCN)NC3=O)C(=O)N[C@@H](CCCNC(=N)N)C(=O)N[C@@H](CCCCN)C(=O)N[C@@H]([C@@H](C)O)C(=O)N2)NC(=O)[C@H](CCCNC(=N)N)NC(=O)[C@H](CO)NC(=O)[C@H](CCCCN)NC(=O)[C@@H]2CCCN2C(=O)[C@H]([C@@H](C)CC)NC(=O)[C@H]([C@@H](C)O)NC(=O)[C@H](CC(=O)O)NC1=O", "note": "[ShK, reference compound]", "values": [
      {"measurement": "IC50", "setting": "[4]", "result": 0.19, "unit": "nM"},
      {"measurement": "IC50", "setting": "[5]", "result": 11, "unit": "nM"}
    ]}
  ]
}
